Laboratory results reported in PubChem BioAssay AID1963841 (Molecular Pharmacology Branch, DTP, NCI, 2024).

System: 439559-082-T-J2-PDC spheroid viability
Assay: Anticancer human tumor 439559-082-T-J2-PDC patient-derived colon adenocarcinoma cell line growth inhibition [POLQ]
Conditions: spheroids with HUVEC and MSC; for IC50: curve of first compound; for viability, T/C: stronger effect = lower value
In short: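 PDC + HUVEC + MSC complex spheroids; POLQ inhibitors ± partner drugs; top conc. at/near clinical Cmax, else 10 microM (SN-38 1 microM), half-log dilutions; 37 degrees C, 5% CO2.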

[1] = second compound 0.0316 µM, first compound 0.0316 µM
[2] = second compound 0.0316 µM, first compound 0.1 µM
[3] = second compound 0.0316 µM, first compound 0.316 µM
[4] = second compound 0.0316 µM, first compound 1 µM
[5] = second compound 0.0316 µM, first compound 3.16 µM
[6] = second compound 0.0316 µM, first compound 10 µM
[7] = second compound 0.1 µM, first compound 0.0316 µM
[8] = second compound 0.1 µM, first compound 0.1 µM
[9] = second compound 0.1 µM, first compound 0.316 µM
[10] = second compound 0.1 µM, first compound 1 µM
[11] = second compound 0.1 µM, first compound 3.16 µM
[12] = second compound 0.1 µM, first compound 10 µM
[13] = second compound 0.316 µM, first compound 0.0316 µM
[14] = second compound 0.316 µM, first compound 0.1 µM
[15] = second compound 0.316 µM, first compound 0.316 µM
[16] = second compound 0.316 µM, first compound 1 µM
[17] = second compound 0.316 µM, first compound 3.16 µM
[18] = second compound 0.316 µM, first compound 10 µM
[19] = second compound 1 µM, first compound 0.0316 µM
[20] = second compound 1 µM, first compound 0.1 µM
[21] = second compound 1 µM, first compound 0.316 µM
[22] = second compound 1 µM, first compound 1 µM
[23] = second compound 1 µM, first compound 3.16 µM
[24] = second compound 1 µM, first compound 10 µM
[25] = second compound 3.16 µM, first compound 0.0316 µM
[26] = second compound 3.16 µM, first compound 0.1 µM
[27] = second compound 3.16 µM, first compound 0.316 µM
[28] = second compound 3.16 µM, first compound 1 µM
[29] = second compound 3.16 µM, first compound 3.16 µM
[30] = second compound 3.16 µM, first compound 10 µM
[31] = second compound 10 µM, first compound 0.0316 µM
[32] = second compound 10 µM, first compound 0.1 µM
[33] = second compound 10 µM, first compound 0.316 µM
[34] = second compound 10 µM, first compound 1 µM
[35] = second compound 10 µM, first compound 3.16 µM
[36] = second compound 10 µM, first compound 10 µM
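Also: spheroids exposed to compounds for seven days before readout.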
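For viability, T/C in this document: 100% = DMSO vehicle control viability.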

Nc1ccn(C2OC(CO)C(O)C2(F)F)c(=O)n1 (centres undefined) + Cc1cccc(N(C)C(=O)C2C(O)CCN2c2nc(C)cc(C(F)(F)F)c2C#N)c1
IC50 (second compound 0.0316 µM): 923 nM
IC50 (second compound 0.1 µM): 952 nM
IC50 (second compound 0.316 µM): 829 nM
IC50 (second compound 1 µM): 676 nM
IC50 (second compound 3.16 µM): 802 nM
IC50 (second compound 10 µM): 829 nM
viability, T/C [1]: 77.8%
viability, T/C [2]: 71.7%
viability, T/C [3]: 60.6%
viability, T/C [4]: 49.9%
viability, T/C [5]: 37.5%
viability, T/C [6]: 30.6%
viability, T/C [7]: 85.4%
viability, T/C [8]: 76.9%
viability, T/C [9]: 63.8%
viability, T/C [10]: 48.5%
viability, T/C [11]: 39.8%
viability, T/C [12]: 32.1%
viability, T/C [13]: 82.5%
viability, T/C [14]: 75.8%
viability, T/C [15]: 63.3%
viability, T/C [16]: 47.5%
viability, T/C [17]: 35.4%
viability, T/C [18]: 29.6%
viability, T/C [19]: 83.2%
viability, T/C [20]: 76.1%
viability, T/C [21]: 61.3%
viability, T/C [22]: 43.1%
viability, T/C [23]: 37.7%
viability, T/C [24]: 30.9%
viability, T/C [25]: 79.8%
viability, T/C [26]: 69.3%
viability, T/C [27]: 59.4%
viability, T/C [28]: 47.1%
viability, T/C [29]: 38.3%
viability, T/C [30]: 31.4%
viability, T/C [31]: 80.3%
viability, T/C [32]: 70.6%
viability, T/C [33]: 57.1%
viability, T/C [34]: 49.5%
viability, T/C [35]: 40%
viability, T/C [36]: 35%

C#Cc1c(F)ccc2cc(O)cc(-c3ncc4c(N5CC6CCC(C5)N6)nc(OCC56CCCN5CC(F)C6)nc4c3F)c12 (centres undefined) + COC1C(OC(N)=O)C(O)C(Oc2ccc3c(O)c(NC(=O)c4ccc(O)c(CC=C(C)C)c4)c(=O)oc3c2C)OC1(C)C
IC50 (second compound 0.0316 µM): > 10000 nM
IC50 (second compound 0.1 µM): > 10000 nM
IC50 (second compound 0.316 µM): > 10000 nM
IC50 (second compound 1 µM): > 10000 nM
IC50 (second compound 3.16 µM): > 10000 nM
IC50 (second compound 10 µM): > 10000 nM
viability, T/C [1]: 87.5%
viability, T/C [2]: 90.6%
viability, T/C [3]: 73.8%
viability, T/C [4]: 69.2%
viability, T/C [5]: 58.4%
viability, T/C [6]: 50.3%
viability, T/C [7]: 96%
viability, T/C [8]: 89.1%
viability, T/C [9]: 80%
viability, T/C [10]: 68.9%
viability, T/C [11]: 59.7%
viability, T/C [12]: 52.1%
viability, T/C [13]: 101%
viability, T/C [14]: 84.8%
viability, T/C [15]: 75.8%
viability, T/C [16]: 67.7%
viability, T/C [17]: 61.1%
viability, T/C [18]: 51.1%
viability, T/C [19]: 96.5%
viability, T/C [20]: 88%
viability, T/C [21]: 75%
viability, T/C [22]: 63.9%
viability, T/C [23]: 57.4%
viability, T/C [24]: 49.8%
viability, T/C [25]: 97.2%
viability, T/C [26]: 93.9%
viability, T/C [27]: 70.4%
viability, T/C [28]: 63.9%
viability, T/C [29]: 60.6%
viability, T/C [30]: 49%
viability, T/C [31]: 103%
viability, T/C [32]: 92.1%
viability, T/C [33]: 73.5%
viability, T/C [34]: 67.2%
viability, T/C [35]: 64.4%
viability, T/C [36]: 49.6%
